# In article PMC4547393, “Resin-acid derivatives as potent electrostatic openers of voltage-gated K channels and suppressors of neuronal excitability” (Scientific Reports, 2015):
# Key:
# Format in all cases: cell-based
# [1] = molecular target: T1, 3R Shaker K channel (Drosophila melanogaster, UniProt P08510, A359R/DEL6-46/M356R); assay: two-electrode voltage clamp in Xenopus oocytes, G(V) shift
# T1 construct: gene Sh
# [2] = molecular target: T2, Shaker K channel (WT) (Drosophila melanogaster, UniProt P08510, DEL6-46); assay: two-electrode voltage clamp in Xenopus oocytes, G(V) shift at […]
# T2 construct: gene Sh
# [3] = molecular target: T1, 3R Shaker K channel; assay: two-electrode voltage clamp in Xenopus oocytes, G(V) shift; also patch clamp in CHO-K1 cells
# [4] = molecular target: T3, 3R Shaker K channel (Drosophila melanogaster, UniProt P08510, DEL6-46/M356R/A359R); assay: two-electrode voltage clamp in Xenopus oocytes, G(V) shift at […]
# T3 construct: gene Sh
# [5] = molecular target: T2, Shaker K channel (WT); assay: two-electrode voltage clamp in Xenopus oocytes, G(V) shift and pH dependence at […]
# T2 sequence (P08510 with tags, fused parts or gaps DEL6-46): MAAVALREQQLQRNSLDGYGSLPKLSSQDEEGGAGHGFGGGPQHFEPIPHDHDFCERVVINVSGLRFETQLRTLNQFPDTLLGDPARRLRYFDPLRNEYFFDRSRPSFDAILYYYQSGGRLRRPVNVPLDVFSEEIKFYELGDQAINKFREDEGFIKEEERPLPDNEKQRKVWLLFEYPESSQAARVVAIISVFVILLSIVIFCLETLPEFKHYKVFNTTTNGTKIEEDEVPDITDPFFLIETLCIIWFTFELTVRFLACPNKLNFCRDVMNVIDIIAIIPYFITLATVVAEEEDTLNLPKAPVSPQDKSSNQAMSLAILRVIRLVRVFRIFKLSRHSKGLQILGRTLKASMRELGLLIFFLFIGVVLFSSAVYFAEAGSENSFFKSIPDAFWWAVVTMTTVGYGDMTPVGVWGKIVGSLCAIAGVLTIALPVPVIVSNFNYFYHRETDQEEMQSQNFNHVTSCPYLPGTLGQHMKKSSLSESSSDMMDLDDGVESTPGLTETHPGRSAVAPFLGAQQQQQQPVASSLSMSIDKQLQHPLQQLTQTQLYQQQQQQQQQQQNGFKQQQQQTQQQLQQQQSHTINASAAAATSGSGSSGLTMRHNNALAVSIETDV
# T3 sequence (P08510 with tags, fused parts or gaps DEL6-46/M356R/A359R): as the sequence (P08510 with tags, fused parts or gaps DEL6-46) above, with M315R, A318R counted along it
# T1 sequence (P08510 with tags, fused parts or gaps DEL6-46/M356R/A359R): as the sequence (P08510 with tags, fused parts or gaps DEL6-46) above, with M315R, A318R counted along it
SMILES,"two-electrode voltage clamp in Xenopus oocytes, G(V) shift at 100 μM [2]",EC50 [3],"two-electrode voltage clamp in Xenopus oocytes, G(V) shift at 100 μM [4]",other results
"CC(C)c1ccc2c(c1)CC[C@H]1[C@](C)(C(=O)O)CCC[C@]21C [compound 4, dehydroabietic acid]",−2.3 mV,–,–,EC50 [1]: 89 µM
"C[C@@]1(C(=O)O)CCC[C@]2(C)c3cc(Cl)c(Cl)c(Cl)c3CC[C@@H]12 [compound 77, Compound 77]",−21.2 mV,37 µM,–,–
"C=C[C@@]1(C)CC[C@H]2C(=CC[C@@H]3[C@]2(C)CCC[C@@]3(C)C(=O)O)C1 [compound 2, isopimaric acid]",–,–,−15.9 ± 1.8 mV,–
"CON=C1C[C@H]2[C@](C)(C(=O)O)CCC[C@]2(C)c2cc(Br)c(C(C)C)cc21 [compound 33, Compound 33]",–,37 µM,–,"two-electrode voltage clamp in Xenopus oocytes, G(V) shift and pH dependence at [5]: For all three compounds, the induced shifts are smaller on Shaker WT compared to Shaker 3R K channels"
"C=CCON=C1C[C@H]2[C@](C)(C(=O)O)CCC[C@]2(C)c2ccc(C(C)C)cc21 [compound 19, Compound 19]",–,–,−17.8 ± 1.9 mV,–
"CC(C)C1=CC2=CC[C@@H]3[C@](C)(CCC[C@@]3(C)C(=O)O)[C@H]2CC1 [compound 3, abietic acid]",–,–,−11.2 ± 2 mV,–
